The source of these data is patent US7951838B2, “Substituted spirocyclic chromanamine compounds as Beta-Secretase modulators and methods of use” (Amgen Inc., priority 2007, dated 2011).

For assay [1], the target named is T1, BACE (Homo sapiens, UniProt P56817).
T1 construct: Cells stably expressing Amyloid Precursor Protein (APP) were plated at a density of 40K cells/well in 96 well plates; endogenous in cells
The assay can be described thus: BACE cell-based assay (Cell Assay), inhibition of Aβ40 by sandwich ELISA. The note with it: Aβ40 in conditioned medium of cells stably expressing APP, 24 h incubation. As for the experimental part:
BACE Cell-Based Assay (Cell Assay)
The cell-based assay measures inhibition or reduction of Aβ40 in conditioned medium of test compound treated cells expressing amyloid precursor protein.
Cells stably expressing Amyloid Precursor Protein (APP) were plated at a density of 40K cells/well in 96 well plates (Costar). The cells were cultivated for 24 hours at 37° C. and 5% CO2 in DMEM supplemented with 10% FBS. The test compounds were then added to cells in 10-point dose response concentrations with the starting concentration being either 100 μM or 10 μM. The compounds were diluted from stock solutions in DMSO and the final DMSO concentration of the test compounds on cells was 0.1%. After 24 h of incubation with the test compounds the supernatant conditioned media was collected and the Aβ40 levels were determined using a sandwich ELISA. The IC50 of the compound was calculated from the percent of control or percent inhibition of Aβ40 as a function of the concentration of the test compound.
The sandwich ELISA to detect Aβ40 was performed in 96 well microtiter plates, which were pre-treated with goat anti-rabbit IgG (Pierce). The capture and detecting antibody pair that were used to detect Aβ40 from cell supernatants were affinity purified pAb40 (Biosource) and biotinylated 6E10 (Signet Labs Inc.), respectively. The optimal concentration for the pAb40 antibody was 3 μg/ml in Superblock/TBS (Pierce) that was supplemented with 0.05% Tween 20 (Sigma). Optimal concentration for the detection antibody 6E10-biotinylated was 0.5 μg/ml in Superblock/TBS (Pierce) that had been supplemented with 2% normal goat serum and 2% normal mouse serum.
Cellular supernatants were incubated with the capture antibody for 3 h at 4° C., followed by 3 wash steps in TBS-tween (0.05%). The detecting antibody incubation was for 2 h at 4° C., again followed by the wash steps as described previously. The final readout of the ELISA is Time-Resolved Fluorescence (counts per minute) using Delfia reagents Streptavidin-Europium and Enhancement solutions (Perkin Elmer) and the Victor 2 multilabel counter (Perkin Elmer).

For assay [2], the target named is T1, BACE. The assay can be described thus: In vitro enzymatic BACE FRET assay (Enzyme Assay). The conditions noted are these: pH 4.2, enzyme 0.2 nM, FRET substrate 50 nM. The format is biochemical. As for the experimental part:
In Vitro Enzymatic BACE FRET (Fluorescence Resonance Energy Transfer) Assay (Enzyme Assay)
Assay buffer is 0.05 M acetate, pH 4.2, 10% DMSO final, 100 uM genapol (which is a nonionic detergent, below it's Critical Micelle Concentration). Enzyme (0.2 nM) is pre-incubated for one hour with inhibitors added in 1 uL of DMSO. Then the assay is started by the addition of FRET substrate (50 nM) and incubated for one hour. The FRET assay is terminated with by addition of Tris buffer, which raises the pH to neutrality, and the fluorescence is determined The FRET substrate is a peptide with commercially available fluorophore and quencher, on opposite sides of the BACE cleavage site. Proteolytic cleavage of the FRET substrate releases quenching of fluorescence (excitation 488 nm and […]).

A value given as a limit tells only on which side of the number the result lay.

T1 sequence (P56817 46-501): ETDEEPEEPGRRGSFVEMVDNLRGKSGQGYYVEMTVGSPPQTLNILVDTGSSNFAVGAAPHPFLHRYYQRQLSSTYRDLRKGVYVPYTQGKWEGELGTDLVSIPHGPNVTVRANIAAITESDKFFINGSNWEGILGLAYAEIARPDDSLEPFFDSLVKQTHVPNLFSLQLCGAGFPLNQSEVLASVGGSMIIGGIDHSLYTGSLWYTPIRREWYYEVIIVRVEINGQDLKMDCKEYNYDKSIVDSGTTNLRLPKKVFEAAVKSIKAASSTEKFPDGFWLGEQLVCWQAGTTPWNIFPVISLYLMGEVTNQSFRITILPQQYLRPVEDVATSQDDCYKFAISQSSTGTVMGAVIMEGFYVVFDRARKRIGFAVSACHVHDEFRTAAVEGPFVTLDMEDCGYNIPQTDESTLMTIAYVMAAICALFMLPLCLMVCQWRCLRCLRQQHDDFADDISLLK

Take `CC(C)(C)Cc1cnc2c(c1)[C@@H](NC[C@@H](O)[C@H](Cc1ccc(F)cc1)Nc1ncnc3sccc13)CC1(CCC1)O2` [Example 35, (2R,3S)-1-(((4′S)-6′-(2,2-dimethylpropyl)-3′,4′-dihydrospiro[cyclobutane-1,2′-pyrano[2,3-b]pyridin]-4′-yl)amino)-4-(4-fluorophenyl)-3-(thieno[2,3-d]pyrimidin-4-ylamino)-2-butanol]: the IC50 is 0.1 to 1 µM against BACE [1] and 10 to 25 µM against BACE [2].

For the compound `CCc1ccc2c(c1)[C@@H](NC[C@@H](O)[C@H](Cc1ccccc1)Nc1nc3ccccc3o1)CC1(CCC1)O2` [Example 36, (2R,3S)-3-(1,3-benzoxazol-2-ylamino)-1-(((4S)-6-ethyl-3,4-dihydrospiro[chromene-2,1′-cyclobutan]-4-yl)amino)-4-phenyl-2-butanol], the IC50 against BACE [1] fell in the range of 1 to 5 µM; on BACE [2] it was 10 to 25 µM.

With `CCc1ccc2c(c1)[C@@H](NC[C@@H](O)[C@H](Cc1ccccc1)Nc1nccc(CC)n1)CC1(CCC1)O2` [Example 37, (2R,3S)-1-((S)-6-ethyl-2,2-spirocyclobutyl-chroman-4-ylamino)-4-phenyl-3-(4-ethylpyrimidin-2-ylamino)butan-2-ol], the IC50 against BACE [1] fell in the range of 5 to 10 µM; against BACE [2], 10 to 25 µM.

In the case of `CCc1ccc2c(c1)[C@@H](NC[C@@H](O)[C@H](Cc1ccccc1)Nc1ncccn1)CC1(CCC1)O2` [Example 38, (2R,3S)-1-((S)-6-ethyl-2,2-spirocyclobutyl-chroman-4-ylamino)-4-phenyl-3-(pyrimidin-2-ylamino)butan-2-ol], the IC50 against BACE [1] and against BACE [2] was 10 to 25 µM in each case.

For the compound `CCc1ccc2c(c1)[C@@H](NC[C@@H](O)[C@H](Cc1ccccc1)Nc1ccc(Cl)nn1)CC1(CCC1)O2` [Example 39, (2R,3S)-3-((6-chloro-3-pyridazinyl)amino)-1-(((4S)-6-ethyl-3,4-dihydrospiro[chromene-2,1′-cyclobutan]-4-yl)amino)-4-phenyl-2-butanol], the IC50 on BACE [1] and at BACE [2] was 10 to 25 µM throughout.

Take `CC(C)(C)Cc1cnc2c(c1)[C@@H](NC[C@H](O)[C@H](Cc1ccccc1)Nc1ccccc1F)CC1(CCC1)O2` [Example 41, (2S,3S)-1-(((4′S)-6′-(2,2-dimethylpropyl)-3′,4′-dihydrospiro[cyclobutane-1,2′-pyrano[2,3-b]pyridin]-4′-yl)amino)-3-((2-fluorophenyl)amino)-4-phenyl-2-butanol]: the IC50 against BACE [1] and against BACE [2] was 10 to 25 µM each time.

Turning to `CCc1ccc2c(c1)[C@@H](NC[C@@H](O)[C@H](Cc1ccccc1)Nc1cccnc1)CC1(CCC1)O2` [Example 43, (2R,3S)-1-(((4S)-6-ethyl-3,4-dihydrospiro[chromene-2,1′-cyclobutan]-4-yl)amino)-4-phenyl-3-(3-pyridinylamino)-2-butanol], the IC50 against BACE [1] and against BACE [2] was 10 to 25 µM in each case.

Consider `CCOc1c(N[C@@H](Cc2cccc(F)c2)[C@H](O)CN[C@H]2CC3(CCC3)Oc3ncc(CC(C)(C)C)cc32)c(=O)c1=O` [Example 45, 3-(((1S,2R)-3-(((4′S)-6′-(2,2-dimethylpropyl)-3′,4′-dihydrospiro[cyclobutane-1,2′-pyrano[2,3-b]pyridin]-4′-yl)amino)-1-((3-fluorophenyl)methyl)-2-hydroxypropyl)amino)-4-(ethyloxy)-3-cyclobutene-1,2-dione], for which the IC50 against BACE [1] was 0.1 to 1 µM; against BACE [2], less than 0.1 µM.
